According to patent US11034742B2, “Peptides with antibiotic potential against Mycobacterium tuberculosis” (LINNANE PHARMA AB, priority 2017, dated 2021):
Values after ≈ are worked out from the molar mass of the structure shown. Positions of bridges follow the written chain, without caps; N, C: chain ends. Residues, ends and D or L forms follow the SMILES beside them.

Tested on: M. tuberculosis

SMILES: CC[C@H](C)[C@@H]1NC(=O)[C@H](CO)NC(=O)[C@H](CCCCN)NC(=O)[C@@H]2CSSC[C@@H](C(=O)N[C@@H](Cc3ccc(O)cc3)C(=O)O)NC(=O)[C@H](CCCCN)NC(=O)[C@@H]3CSSC[C@H](NC(=O)[C@H](CCC(N)=O)NC(=O)[C@H]([C@@H](C)CC)NC(=O)[C@H](CC(=O)O)NC(=O)[C@H](CC(=O)O)NC(=O)[C@H](CCC(=O)O)NC(=O)[C@H](CO)NC(=O)[C@H](Cc4c[nH]c5ccccc45)NC(=O)[C@@H]4CCCN4C(=O)CNC(=O)[C@H](CC(N)=O)NC(=O)[C@@H](NC(=O)CNC(=O)[C@H](Cc4ccccc4)NC(=O)CN)CSSC[C@H](NC(=O)[C@H](Cc4ccc(O)cc4)NC(=O)CNC(=O)CNC(=O)[C@H](CCCCN)NC(=O)[C@H](Cc4ccc(O)cc4)NC(=O)CNC(=O)[C@H](CCCCN)NC1=O)C(=O)N[C@@H](C)C(=O)N[C@@H](CCCNC(=N)N)C(=O)NCC(=O)NCC(=O)N[C@@H](Cc1ccccc1)C(=O)N[C@@H](C(C)C)C(=O)N3)C(=O)N[C@@H](Cc1c[nH]cn1)C(=O)N[C@@H](CC(N)=O)C(=O)N[C@@H](Cc1c[nH]cn1)C(=O)N2 [SEQ ID NO: 3] (H-GFGCNGPWSEDDIQCHNHCKSIKGYKGGYCARGGFVCKCY-OH; disulfide 4-30, 15-37, 19-39 (inferred); N-terminus and C-terminus assumed)
- MIC (mg/L): 27.5 mg/L (≈ 6.27 µM)
- MIC (μM): 6.8 µM (≈ 29.8 µg/mL)
- mean concentration inhibiting 99% of bacterial growth: 6.3 µM

SMILES: CC[C@H](C)[C@@H]1NC(=O)[C@H](C)NC(=O)[C@@H]2CSSC[C@H](NC(=O)CNC(=O)[C@H](Cc3ccccc3)NC(=O)CN)C(=O)N[C@@H](CC(N)=O)C(=O)NCC(=O)N3CCC[C@H]3C(=O)N[C@@H](Cc3c[nH]c4ccccc34)C(=O)N[C@@H](CO)C(=O)N[C@@H](CCC(=O)O)C(=O)N[C@@H](CC(=O)O)C(=O)N[C@@H](CC(=O)O)C(=O)N[C@@H]([C@@H](C)CC)C(=O)N[C@@H](CCC(N)=O)C(=O)N[C@H]3CSSC[C@H](NC(=O)[C@H](C(C)C)NC(=O)[C@H](Cc4ccccc4)NC(=O)CNC(=O)CNC1=O)C(=O)N[C@@H](CCCCN)C(=O)N[C@H](C(=O)N[C@@H](Cc1ccc(O)cc1)C(=O)O)CSSC[C@H](NC(=O)[C@H](Cc1c[nH]cn1)NC(=O)[C@H](CC(N)=O)NC(=O)[C@H](Cc1c[nH]cn1)NC3=O)C(=O)N[C@@H](CCCCN)C(=O)N[C@@H](CO)C(=O)N[C@@H]([C@@H](C)CC)C(=O)N[C@@H](CCCCN)C(=O)NCC(=O)N[C@@H](Cc1ccc(O)cc1)C(=O)N[C@@H](CCCCN)C(=O)NCC(=O)NCC(=O)N[C@@H](Cc1ccc(O)cc1)C(=O)N2 [SEQ ID NO: 4] (H-GFGCNGPWSEDDIQCHNHCKSIKGYKGGYCAIGGFVCKCY-OH; disulfide 4-30, 15-37, 19-39 (inferred); N-terminus and C-terminus assumed)
- mean concentration inhibiting 99% of bacterial growth: 6.3 µM
